Assay results reported in patent US11413261B2, “Pharmaceutical composition for treating cancer comprising lactate metal salt” (METIMEDI PHARMACEUTICALS CO., LTD, priority 2014, dated 2022).

Experiments:
[1] = tested on: human colorectal cancer cell lines (HCT-116 and HT-29); assay: Calcium level in cancer cells (Fluo-3/AM, confocal microscope); format: cell-based; settings: 2.5 mM, 24 hours, vs untreated
Description: Each of human colorectal cancer cell lines (HCT-116 and HT-29) with the cell number of 5×10^5 cells cultured in a cancer cell culture medium (RPMI1640 medium including 10% FBS and 1% penicillin/streptomycin) at 37° C. with 5% CO2 was treated with 2.5 mM calcium lactate and then cultured for 24 hours. The cultured cancer cells were treated with 10 μM Fluo-3/AM calcium indicator and 25% Pluronic F-127, reacted at 37° C. for 30 minutes, applied with fluorescence probes, and then photographed with a confocal microscope (FIG. 2). In this case, cancer cells untreated with calcium lactate were used as control groups.

[2] = tested on: human colorectal cancer cell lines (HCT-116 and HT-29); assay: Lactate level in cancer cells (lactate assay kit); format: cell-based; settings: 2.5 mM, medium with 3 mM or 11 mM glucose, vs untreated
Description: The cells cultured in Example 2-1 were cultured again in a medium including 3 mM (low) or 11 mM (normal) glucose. The cultured cells were disrupted by ultrasonication. The concentration of lactate included in the disrupted cells was measured using a lactate assay kit (AbCam, Cambridge, Mass.) (FIG. 3). In this case, cancer cells untreated with calcium lactate were used as control groups.

[3] = tested on: human colorectal cancer cell lines (HCT-116 and HT-29); assay: pH inside and outside cancer cell; format: cell-based; settings: 2.5 mM
Description: Specifically, with the cells cultured in Example 2-1, an extracellular pH was measured with a pH meter from the medium for the cells treated with calcium lactate and then cultured and an intracellular pH was measured with a pH detection kit (Life Technologies, CA) from the cells treated with calcium lactate and then cultured (FIG. 4). In this case, cancer cells untreated with calcium lactate were used as control groups.

[4] = tested on: human vascular endothelial cell (HUVEC); assay: Tube formation of HUVEC in culture supernatants of treated cancer cell lines; format: cell-based
Text: A human vascular endothelial cell (HUVEC) was inoculated into each of the obtained culture supernatant and cultured to analyze a conformational change of cells (FIG. 17). In this case, an HUVEC cultured using the culture medium of a cancer cell line cultured without treating with calcium lactate was used as a control group, and an HUVEC cultured with the treatment with Sulforaphane, which is a growth inhibitor of an HUVEC, was used as a comparison group.

[5] = tested on: human melanoma cell lines (SKMEL-02 and SKMEL-28); assay: Colony-forming ability of melanoma cell lines in solid medium; format: cell-based
Description: Firstly, human colorectal cancer cell lines (HCT-116, HT-29, and DLD-1) were inoculated into solid mediums including various concentrations (0 mM, 0.5 mM, 1.5 mM, or 2.5 mM) of calcium lactate and cultured for 10 days. After the completion of the culture, the cells were immobilized and stained with hematoxylin. Then, the number of cancer cells formed into colonies was counted (FIG. 23).
Then, using the same method as described above, human melanoma cell lines (SKMEL-02 and SKMEL-28) were inoculated into solid mediums including various concentrations (1 mM, 2.5 mM, or 5 mM) of calcium lactate and culture was performed, and the number of cancer cells formed into colonies were counted (FIGS. 24a and 24b).

PARP = PARP expression in tumor tissue of xenograft animal model; format: in vivo, Balb/c mice; settings: HT-29 tumor tissue; 2.5 mM P.O. or 2.5 mM I.T.; vs control group
Description: A colorectal cancer cell (HT-29) cultured in an RPMI1640 medium and then diluted with PBS was subcutaneously implanted into the flank of Balb/c mice. The mice were bred until the colorectal cancer cell grew to about 5 mm. Then, four groups were set up; a control group untreated with calcium lactate for 30 days, an experimental group 1 (peroral, P.O.) administered with 2.5 mM calcium lactate by oral administration, an experimental group 2 (intra tumor, I.T) injected with 2.5 mM calcium lactate around tumor, and an experimental group 3 (subcutaneous, S.C) subcutaneously injected with 25 mM calcium lactate (FIG. 27).
Colorectal cancer tissues were extracted from the mice of the control group, the experimental group 1, or the experimental group 2 set up in Example 10-1, and expression levels of PARP and truncated PARP contributing to stabilization of cancer cells expressed therein were compared (FIG. 28).

[6] = tested on: colorectal cancer cell (HT-29 or HCT-116); assay: Tumor volume in animal model treated with radiation and calcium lactate; format: in vivo, mice
Description: A colorectal cancer cell (HT-29 or HCT-116) was subcutaneously implanted into the flank of mice. The mice were bred until the colorectal cancer cell grew to about 5 mm. Then, four groups were set up; a control group untreated with calcium lactate for 30 days, an experimental group 11 (intra tumor, I.T) injected with 2.5 mM calcium lactate, an experimental group 12 (IR) irradiated with radiation of 2 Gy five times using an X-RAD 320 X-ray irradiator (300 kVp) equipped with a 2.0 mm aluminum filter, and an experimental group 13 (CaLa+IR) irradiated with radiation of 2 Gy five times and injected with 2.5 mM calcium lactate at the same time (FIG. 36).
The volumes of colorectal cancer tissues extracted from the mice of the control group or each of the experimental groups set up in Example 11-1 were measured over time and compared with each other (FIGS. 37a and 37b).

[7] = tested on: human colorectal cancer cell lines (HT-29 and HCT-116); assay: Colony-forming ability, anticancer drug in combination with calcium lactate (6-well plates); format: cell-based; settings: 2.5 mM calcium lactate alone, vs control
Description: Human colorectal cancer cell lines (HT-29 and HCT-116) with the cell number of 1×10^3 cells were seeded into an RPMI1640 medium in each of 6-well plates. After one day, the medium was replaced with fresh medium and the cells were treated with 2.5 mM calcium lactate or 1 μM, 2.5 μM, and 5 μM Imatinib alone or treated with various concentrations (1 μM, 2.5 μM, and 5 μM) of Imatinib in combination with 2.5 mM calcium lactate. Then, the colony-forming abilities of the cells were compared. In this case, human colorectal cancer cell lines (HT-29 and HCT-116) untreated with any drug were used as control groups (FIGS. 38a, 38b, 39a and 39b).
Human colorectal cancer cell lines (HT-29 and HCT-116) with the cell number of 1×10^3 cells were seeded into an RPMI1640 medium in each of 6-well plates. After one day, the medium was replaced with fresh medium and the cells were treated with 2.5 mM calcium lactate or 2.5 μM, 5 μM, and 10 μM 5-FU alone or treated with various concentrations (2.5 μM, 5 μM, and 10 μM) of 5-FU in combination with 2.5 mM calcium lactate. Then, the colony-forming abilities of the cells were compared. In this case, human colorectal cancer cell lines (HT-29 and HCT-116) untreated with any drug were used as control groups (FIGS. 40a, 40 b, 41a and 41b).

CC(O)C(=O)[O-].CC(O)C(=O)[O-].[Ca+2] (stereo not shown) [calcium lactate]
concentration of calcium in cancer cells [1]: increased
concentration of lactate in cancer cells [2]: increased
intracellular pH ([3]; pH detection kit): decreased to acidic condition
extracellular pH ([3]; pH meter, medium): not changed
tube-forming ability of HUVEC ([4]; culture supernatant of cancer cell line treated with 2.5 mM): reduced tube-forming ability similar to the comparison group treated with Sulforaphane
tube-forming ability of HUVEC ([4]; culture supernatants of cancer cell lines treated with 0.5, 1, 1.5, 2.5 mM for 24 hours, vs control): reduced tube-forming ability
number of colonies ([5]; SKMEL-02, 5 mM (untreated 105 to 168)): about 49 colonies
number of colonies ([5]; SKMEL-02 and SKMEL-28, with increasing concentration (1, 2.5, 5 mM)): decreased
number of colonies ([5]; SKMEL-28, 5 mM): colony was not formed
PARP degrading activity (PARP): increased
growth of tumor ([6]; 2.5 mM calcium lactate I.T. individually, vs control): inhibited
growth of tumor ([6]; 2.5 mM calcium lactate in combination with radiation of 2 Gy five times): inhibited to the lowest level
colony-forming ability [7]: suppressed
